Experimental data reported in paper PMC7221793, “Metabolism and Pharmacokinetics of SP-8356, a Novel (1S)-(−)-Verbenone Derivative, in Rats and Dogs and Its Implications in Humans” (Molecules, 2020).

Key:
[1] = In vivo metabolite identification, pooled rat plasma (Q-TOF LC-MS/MS); conditions: i.v. SP-8356 20 mg/kg
Experimental: Plasma samples from the i.v. administrations described in Section 4.2 and Section 4.3 were used in this study. Plasma samples pooled at each time point were subjected to sample preparation as described in Section 4.2. The prepared samples were analyzed by Agilent 6530 Q-TOF LC-MS/MS system equipped with dual AJS ESI ion source and Agilent 1200 series HPLC system as described below.
Chromatographic separation was achieved on an Agilent Eclipse C18 column (2.1 mm × 100 mm, 3.5 µm) by a gradient elution with a mobile phase consisting of 0.1 vol.% formic acid in water (A) and 0.1 vol.% formic acid in acetonitrile (B) at 50 °C: starting with 5 vol.% B for 2 min, ramping to 95 vol.% B over 1 min, maintaining for 3 min. The mobile phase flow rate was kept at 0.45 mL/min throughout the run. The sample injection volume was 5 µL. Ion source parameters were set as follows: capillary voltage, 3500 V; drying gas, 12 L/min and 300 °C; nebulizer gas, 30 psi; sheath gas, 12 L/min and 300 °C. Mass spectra were acquired in negative ion auto MS/MS mode (F, 135 V; CE, 25 eV) with full scan range of m/z (100–1000) and mass scan rate of 8 spectra/s. Metabolites were identified using Agilent MassHunter Metabolite ID software (version B.04.00) (Santa Clara, CA, USA). Chromatograms and mass spectra of the parent and identified metabolites were extracted using Agilent MassHunter Qualitative Analysis software (version B.05.00) (Santa Clara, CA, USA).

[2] = In vivo metabolite identification, pooled rat urine; conditions: rat pooled urine 0–24 h, single i.v. dose of SP-8356
Experimental: Rat urine samples were collected from the animal studies approved by the IACUC of Korea University (Approval No.: KUIACUC-2017-124; Approval date: Jul. 29, 2017). SP-8356 dissolved in DMA/Cremophor EL/saline (5/10/85 vol.%) was dosed i.v. at 10 mg/kg (n = 5/dose group) to male SD rats (8 weeks old; (255–275) g; Koatech Inc., Gyeonggi, Republic of Korea) housed individually in metabolic cages. Urine samples were collected for ((0–4), (4–8) and (8–24)) h. Pooled urine samples were mixed with equal volume of acetonitrile containing HSDH (1 μg/mL) as IS, followed by filtration with a syringeless filter device (Mini-UniPrep™, PTFE filter media with polypropylene housing, 0.45 µm). The filtrate was analyzed by Agilent 6530 Q-TOF LC-MS/MS system equipped with dual AJS ESI ion source and Agilent 1200 series HPLC system, as follows.
Chromatographic separation was achieved on an Agilent Eclipse C18 column (2.1 mm × 100 mm, 3.5 µm) by a gradient elution with a mobile phase consisting of 0.1 vol.% formic acid in water (A) and 0.1 vol.% formic acid in acetonitrile (B) at 50 °C: starting with 5 vol.% B for 2 min, ramping to 95 vol.% B over 1 min, maintaining for 3 min. The mobile phase flow rate was kept at 0.45 mL/min throughout the run. The sample injection volume was 5 µL. […]

[3] = Metabolic stability in rat liver S9 fraction; assay type: in vitro ADME
Experimental: The metabolic stability of SP-8356 was investigated using rat, dog and human liver S9 fractions fortified with cofactors for major drug metabolism. The final reaction mixture contained 1 mg/mL rat, dog or human liver S9 fraction, 1 mM cofactors (NADPH, UDPGA, PAPS, SAM and GSH), 2 mM MgCl2, 25 µg/mL alamethicin and 1 µM SP-8356 in final volume of 200 µL. The metabolic reactions were initiated by adding 10 mM cofactor solution to reaction mixtures preincubated for 5 min at 37 °C. The reactions were terminated at (0, 5, 15, 30 and 60) min by the addition of 200 µL ice-cold acetonitrile containing HSDH (1 µg/mL). The subsequent sample preparation and analytical methods were the same as those described in Section 4.5.
The degradation t1/2 of SP-8356 was calculated using the following Equation:(1) t1/2=0.693/k, where, k was the first-order rate constant calculated by one phase decay nonlinear regression using GraphPad Prism™ 7 (GraphPad Software, La Jolla, CA, USA). CLint was calculated using the following Equation:(2) CLint=k/fu,S9· mL incubation/mg liver S9· mg S9/g liver·g liver/kg body wt.
The scaling factors were (136, 120.7 and 120.7) mg S9 protein/g liver and (40, 32 and 26) g liver/kg body weight for rats, dogs and humans, respectively. For simplicity, the fraction unbound in S9 incubation (fu, S9) was assumed to be one. CLH was predicted using the hepatic well-stirred model, as follows:(3) CLH=QH·fu·CLint/QH+fu·CLint, where, QH was the hepatic blood flow of (55, 30 and 20) mL/min/kg for rats, dogs and humans, respectively. The fraction unbound (fu) was assumed to be one. EH was calculated using the following Equation:(4) EH=CLH/QH.

[4] = tested on: mouse xenograft model of triple-negative breast cancer; parameters: method as in PMID 31036845; conditions: in mice ref 10; cited from earlier work

AUClast (%) ([1]; % versus total AUClast of parent and all detected metabolites): 26.48% | AUClast (AR∙h) × 10^2 ([1]; AR = peak area ratio versus internal standard): 36.22 (AR∙h) × 10^2 | relative peak size (AR) in urine, in total [2]: almost insignificant | CLint scaled at 1 µM ([3]; Sprague-Dawley, liver S9 fraction, rat liver S9, +Cofactors): 2900 mL/min/kg | EH ([3]; rat, +Cofactors, EH = CLH/QH): 0.98 | CLH ([3]; rat, +Cofactors, predicted by well-stirred model): 54.0 mL/min/kg
SMILES: COc1cc(/C=C/C2=CC(=O)[C@H]3C[C@@H]2C3(C)C)cc(O)c1O [SP-8356, (1S,5R)-4-((E)-3,4-dihydroxy-5-methoxystryryl)-6,6-dimethylbicylco[3.1.1]hept-3-en-2-one]
anti-breast cancer activity [4]: potent anti-breast cancer effect
